Assay results taken from US20260027239A1, “cRGD -CONJUGATED IMAGING AGENT” (Curadel Surgical Innovations, Inc., priority 2022, published 2026).

How the values were obtained:
[1] = Stability of cRGD in serum; assay type: in vitro ADME
[2] = Stability in warm buffered fetal bovine serum (normalized absorbance and absorbance spectra over time); assay type: in vitro ADME; conditions: 37° C. buffered FBS
Description: The normalized absorbance of ZW800-1 and ZW700-1c in 37° C. buffered FBS, pH 7.4 over time from 0 to 60 hours are shown in FIGS. 2-4.

stability in serum [1] | stability, changes in absorption spectra during metabolism in warm serum ([2]; pH 7.4, 0 to 48 hours, compared to ZW800-1 (FIGS. 5-6)) | stability, normalized absorbance over time ([2]; pH 7.4, 0 to 60 hours, compared to ZW800-1 (FIGS. 2-4)) | Structure (SMILES)
stable in serum for days | – | – | N=C(N)NCC[C@@H]1NC(=O)[C@H](CCCCN)NC(=O)[C@@H](Cc2ccc(O)cc2)NC(=O)[C@H](C(=O)O)NC(=O)CNC1=O [cRGD]
– | high stability | extreme stability | CC1(C)C(/C=C/C(=C/C=C2/N(CCC[N+](C)(C)C)c3ccc(S(=O)(=O)[O-])cc3C2(C)C)c2ccc(CCC(=O)[O-])cc2)=[N+](CCC[N+](C)(C)C)c2ccc(S(=O)(=O)[O-])cc21 [ZW700-1c]
